Assay results as given in patent publication US8299083B2, “PDE5 inhibitor compositions and methods for treating cardiac indications” (The Johns Hopkins University, priority 2004, dated 2012).
Read-outs that look alike come from different tables or passages of the source.

Columns and labels:
[1] = Plasma sildenafil levels in healthy volunteers; format: in vivo; conditions: human, po, 100 mg, 100 mg oral
Source text: Forty healthy volunteers were recruited from the general population in response to advertisements posted in the surrounding community. Subjects were screened by medical history, physical examination, and transthoracic echocardiogram. Individuals with heart disease, atherosclerosis, hypertension, diabetes mellitus, pulmonary hypertension, renal or hepatic disease, smoking, pregnancy, or under treatment with nitrates, adrenergic-blocking drugs, or medicines known to interfere with sildenafil pharmacokinetics were excluded. […] All subjects were instructed to fast for >6 hours prior to study. […] Intravenous dobutamine (5 μg/kg/min) was then administered for 5 minutes to achieve a stable response, and measurements repeated (D1). Dobutamine was discontinued, and 15 minutes provided to return to the baseline state. […] Data were again recorded for a second baseline (B2), and during a second dobutamine infusion (D2) using the identical protocol as for the first test. Plasma sildenafil and its metabolite […] measured in each subject by liquid chromatography and mass spectrometry (SFBC Analytical Labs, North Wales, Pa.).

[2] = test system: isolated adult murine myocytes; assay: Isoproterenol-stimulated contraction of isolated adult cardiac myocytes; format: cell-based, mouse; conditions: sildenafil 100 nM
Description: Louis, Mo.) for 6-7 min. Ventricles were gently chopped, filtered (150μ mesh), centrifuged (500 RPM×1 min), and rinsed in Tyrode's solution with increasing calcium (final 1.8 mM Ca^2+). Cells were incubated with 5 μM Indo-1 AM (Molecular Probes), rinsed, and studied at 27° C. by field stimulation in an inverted fluorescence microscope (Diaphot 200; Nikon, Inc). Sarcomere length (IonOptix, MA) and whole cell calcium transients were measured.

[3] = test system: STAT3; assay: IL-6 induced STAT3 activation in neonatal rat myocytes; format: cell-based; conditions: sildenafil 1 μM
Description: Myocardial tissue extract was electrophoresed in SDS-New Page gel, and probed for both tyrosine phosphorylated (Tyr705) and total Stat3. In additional studies, rat neonatal myocytes were cultured, then exposed to interleukin 6 (IL-6, Cell Signaling, 100 ng/ml) for one hour. […] In other studies, cells were pre-transfected (Lipofectamine™, Invitrogen) with mixed oligonucleotide silencing RNAs for STAT3 (siRNA, SmarTTpool Stat3). Protein extracts were obtained from myocyte extracts after the 1 hour incubation period, and probed for phosphorylated and total protein levels of Stat1 (Tyr701) and Stat3 (Tyr705) (Cell Signaling Inc.). siRNA was transfected into neonatal myocytes.

[4] = test system: C57BL/6 mice, pressure overload by transverse aortic constriction; assay: TAC-induced cardiac hypertrophy, remodeling and fibrosis (heart weight/tibia length, histology); format: in vivo, mouse
Source text: TAC induced marked heart chamber and cellular hypertrophy (+100% by 3-weeks) that progressed to chamber dilation with reduced fractional shortening after 9 weeks. […] TAC induced a time-dependent increase in myocardial fibrosis and myocyte hypertrophy and both were suppressed by PDE5A inhibition (FIG. 1C, e.g. 67% reduction in fibrosis in 9-week hearts, p<0.0001).
Pressure overload was produced by transverse aortic constriction.
Hearts were fixed with 10% formalin overnight, then embedded in paraffin, sectioned at 5 μm thickness and stained with PAS methenamine. Cardiomyocyte diameter and interstitial collagen fraction were determined using computer-assisted image analysis (Adobe Photoshop 5.0, NIH Image J), with the observer blinded as to tissue source. At least 4-5 different hearts, with five separate fields of cells (total 50-70 cells for each heart) were quantified for cellular analysis.

[5] = test system: NFAT; assay: NFAT promoter activation in neonatal rat myocytes (β-galactosidase / luciferase reporter); format: cell-based; conditions: stimulated by PE or BayK8644, 1 μM sildenafil
Description: Rat neonatal cardiac myocytes were isolated from 1- to 2-day-old Sprague-Dawley rats as described^50. […] Sigma Chemical (St. […] To assess NFAT activation, cells were transfected with adenovirus expressing the three NFAT-binding sites linked to β-galactosidase ([…]), using previously described methods^72. Additional studies were performed using an alternative reporter adenovirus encoding luciferase driven by the NFAT promoter. This was performed twenty-four hours prior to PE, BayK8644, or activated calcineurin stimulation. The latter was achieved by a co-transfection with a replication-deficient adenovirus encoding a Ca^2+-independent, constitutively active, truncated mouse calcineurin […]^72). […] After an additional forty-eight hours, NFAT activation was assessed by β-galactosidase histology/activity or luciferase activity. […] Luciferase activity was assayed by commercial kit (Stratagene, La Jolla, Calif.) and read on a plate luminometer.

[6] = test system: PKG-1; assay: Whole heart PKG-1 activity; format: in vivo, mouse; conditions: chronic treatment
Description: PI3Kα activity was assessed by Elisa assay following immunoprecipitation of PI3K (Seize X IP Kit, Pierce) using a p85α monoclonal antibody (Cell Signaling), with activity measured by fluorescence polarization (Molecular Devices, Perkin-Elmer Victor 3 plate reader). Akt activity (IP with s473-pAkt Ab, GSK-3 fusion protein substrate) was performed using a commercial kit (Cell Signaling Technology, Beverly, Mass.). PKG-1 activity was assayed by calorimetric analysis, CycLex (Clinisciences, Montrouge, FR) from whole heart lysates.

[7] = test system: myocardial cGMP; assay: Myocardial cyclic nucleotide levels; format: in vivo, mouse
Source text: Hearts were washed in ice-cold PBS, homogenized in 6% trichloroacetic acid, centrifuged and extracted with water-saturated ether. The aqueous layer was transferred, vacuum dried, and the pellet resuspended in sodium acetate buffer for cAMP and cGMP enzyme immunoassay (Amersham Pharmacia Biotech, Buckinghamshire, UK).

[8] = test system: MMP-2 and MMP-9; assay: Cardiac gelatinase zymography; format: in vivo, mouse; conditions: 3W TAC, co-treatment
Description: In Vitro gelatin lysis by MMP-2 and MMP-9 was assessed by zymography. Briefly, modified Laemmli buffer without mercaptoethanol was added to lysed tissue samples and loaded on 10% gelatin (Invitrogen Corp., San Diego, Calif.). After electrophoresis, gels were washed twice with renaturing buffer at room temperature followed by developing buffer (Invitrogen Corp., San Diego, Calif.), then stained with a commercially available Coomassie stain to visualize lytic bands (SIMPLYBLUe, Invitrogen Corp., San Diego, Calif.).

[9] = test system: GSK3β; assay: GSK3β phosphorylation in TAC hearts (Western blot); format: in vivo, mouse
Description: Protein was prepared from snap-frozen heart tissue using extraction buffer as described previously^90. Antibodies included calcineurin (1:2000 dilution, BD Transduction Laboratories (San Diego, Calif.), GSK3β, Ser9-phospho-GSK313, Akt, Ser473-phospho-Akt, ERK, Thr202/Thr204-phospho-ERK (1:1000 dilution, Cell Signaling Technology, Beverly, Mass.). Primary antibody binding was visualized by horse radish peroxidase-conjugated secondary antibodies and enhanced chemiluminescence (Pierce, Rockford, Ill.).

CCCc1nn(C)c2c(=O)[nH]c(-c3cc(S(=O)(=O)N4CCN(C)CC4)ccc3OCC)nc12 [sildenafil]
concentration at 75 min ([1]; subjects excluded from analysis, read-out: plasma concentration, mean of four subjects with very low levels): 3.6 nM
concentration at 75 min ([1]; subjects excluded from analysis, read-out: plasma concentrations, each of four subjects with very low levels): < 6 nM
concentration at 75 min ([1]; Free plasma sildenafil concentration, 75 minutes after dose): 44 ± 29 nM
isoproterenol-enhanced contraction of isolated cardiac muscle cells [2]: blunted
IL-6 induced STAT activation [3]: prevented the STAT activation
myocyte hypertrophy and interstitial fibrosis, established hypertrophy ([4]; 1-week TAC, then 2 weeks treatment): both reversed towards baseline
reduction in fibrosis ([4]; 9-week TAC hearts): 67%
TAC-induced hypertrophy and chamber remodeling ([4]; TAC mice, concurrent oral treatment): inhibited
reduction of cardiac hypertrophy (heart weight/tibia length) ([4]; TAC mice, sildenafil 100 mg/kg/day): more than 50%
effect on sham-operated controls ([4]; sham-operated mice): no impact
NFAT promoter activation [5]: suppressed activation
whole heart PKG-1 activity ([6]; TAC hearts): more than doubled PKG-1 activity
whole heart PKG-1 activity ([6]; sham controls): no effect on activity
total myocardial cGMP ([7]; TAC hearts, chronic co-treatment): declined
myocardial cAMP levels ([7]; basal or TAC conditions): did not alter myocardial cAMP levels
total myocardial cGMP ([7]; sham controls, chronic treatment): did not change
gelatinase activity (gel lysis) [8]: largely inhibited
GSK3β activation ([9]; 1-week TAC): remained unchanged
Akt and GSK3β activation ([9]; 9-weeks TAC): reduced both
